#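 In this assay, cells in 96-well plates receive the compound at five concentrations for 48 hours. Endpoints are linearly interpolated between the surrounding concentrations. Abbreviation: GI50, concentration required for 50% inhibition of growth.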 The source made the active and inactive calls. Rule as the data show it: active = GI50 up to about 1.1 µM and inactive = higher.
# Key:
# Experiment in all cases: NCI-60 cell line screen, 48 h
# HT-29 = test system: HT-29
# SK-MEL-2 = test system: SK-MEL-2
# KM12 = test system: KM12
# HL-60 = test system: HL-60
# SK-OV-3 = test system: SK-OV-3
# Malme-3M = test system: Malme-3M
# U-251 = test system: U-251
# NCI-H226 = test system: NCI-H226
# SF-539 = test system: SF-539
# SK-MEL-28 = test system: SK-MEL-28
# RPMI-8226 = test system: RPMI-8226
# SNB-75 = test system: SNB-75
# HCC 2998 = test system: HCC 2998
# A498 = test system: A498
Compound,GI50 (HT-29),GI50 (SK-MEL-2),GI50 (KM12),GI50 (HL-60),GI50 (SK-OV-3),GI50 (Malme-3M),GI50 (U-251),GI50 (NCI-H226),GI50 (SF-539),GI50 (SK-MEL-28),GI50 (RPMI-8226),GI50 (SNB-75),GI50 (HCC 2998),GI50 (A498)
N#Cc1ccc(Cc2ccccn2)cc1Cl,> 100 µM (inactive),> 100 µM (inactive),> 100 µM (inactive),> 100 µM (inactive),> 100 µM (inactive),> 100 µM (inactive),> 100 µM (inactive),> 100 µM (inactive),> 100 µM (inactive),> 100 µM (inactive),,,,
Cc1cc([N+](=O)[O-])c(C)c2c1[nH]c1ccc(O)cc12,> 100 µM (inactive),> 100 µM (inactive),> 100 µM (inactive),16.2 µM (inactive),,> 100 µM (inactive),,> 100 µM (inactive),> 100 µM (inactive),> 100 µM (inactive),11.1 µM (inactive),> 100 µM (inactive),> 100 µM (inactive),
CCOC(=O)C12CCCC1(O)N(NC(N)=O)C(C)=C2C(=O)OC (stereo not drawn),> 100 µM (inactive),> 100 µM (inactive),> 100 µM (inactive),> 100 µM (inactive),> 100 µM (inactive),> 100 µM (inactive),> 100 µM (inactive),> 100 µM (inactive),> 100 µM (inactive),> 100 µM (inactive),> 100 µM (inactive),,> 100 µM (inactive),> 100 µM (inactive)
CCOC(=O)NC/C=C/COC1CCCCO1 (stereo not drawn),,> 100 µM (inactive),> 100 µM (inactive),> 100 µM (inactive),> 100 µM (inactive),> 100 µM (inactive),> 100 µM (inactive),> 100 µM (inactive),> 100 µM (inactive),> 100 µM (inactive),> 100 µM (inactive),> 100 µM (inactive),> 100 µM (inactive),> 100 µM (inactive)
COc1ccc(C(=O)C(c2ccc(OCc3ccccc3)cc2)c2ccc(OCc3ccccc3)cc2)cc1,> 100 µM (inactive),> 100 µM (inactive),> 100 µM (inactive),> 100 µM (inactive),> 100 µM (inactive),> 100 µM (inactive),> 100 µM (inactive),> 100 µM (inactive),> 100 µM (inactive),> 100 µM (inactive),> 100 µM (inactive),> 100 µM (inactive),> 100 µM (inactive),
Nc1ccc2nc(Nc3ccc(F)cc3)cnc2c1,> 100 µM (inactive),> 100 µM (inactive),> 100 µM (inactive),54.7 µM (inactive),,> 100 µM (inactive),,> 100 µM (inactive),> 100 µM (inactive),> 100 µM (inactive),61.7 µM (inactive),> 100 µM (inactive),> 100 µM (inactive),
O=C1[C@@H]2C3c4ccccc4C([C@@H]2C(=O)N1c1ccccc1)S3(=O)=O,> 100 µM (inactive),> 100 µM (inactive),> 100 µM (inactive),> 100 µM (inactive),> 100 µM (inactive),> 100 µM (inactive),47.2 µM (inactive),> 100 µM (inactive),> 100 µM (inactive),,> 100 µM (inactive),65.3 µM (inactive),> 100 µM (inactive),
COC1=CC(=O)C2(C=C1OC)OC[C@H]1Oc3c(ccc4c3C=CC(C)(C)O4)C(=O)[C@H]12 (stereo partly drawn),49.2 µM (inactive),45.2 µM (inactive),40.3 µM (inactive),15.6 µM (inactive),70.1 µM (inactive),57 µM (inactive),56.2 µM (inactive),,34.5 µM (inactive),41.2 µM (inactive),22.6 µM (inactive),32.1 µM (inactive),86.5 µM (inactive),63.7 µM (inactive)
COc1ccc(C(=C(C#N)C#N)c2ccc(OC)cc2)cc1,> 100 µM (inactive),> 100 µM (inactive),> 100 µM (inactive),> 100 µM (inactive),,,> 100 µM (inactive),> 100 µM (inactive),> 100 µM (inactive),> 100 µM (inactive),> 100 µM (inactive),,> 100 µM (inactive),> 100 µM (inactive)
C[N+](C)(C)CC(=O)NC(=O)N/N=C\C(CC#N)CN(Cc1ccccc1)Cc1ccccc1 (stereo not drawn),> 100 µM (inactive),> 100 µM (inactive),> 100 µM (inactive),> 100 µM (inactive),> 100 µM (inactive),58.2 µM (inactive),> 100 µM (inactive),37.5 µM (inactive),> 100 µM (inactive),> 100 µM (inactive),,> 100 µM (inactive),66.4 µM (inactive),> 100 µM (inactive)
COc1ccc(/C=C2\C(=O)Nc3ccccc32)cc1OC,> 100 µM (inactive),> 100 µM (inactive),85.7 µM (inactive),46.7 µM (inactive),32 µM (inactive),> 100 µM (inactive),28.9 µM (inactive),> 100 µM (inactive),40.6 µM (inactive),> 100 µM (inactive),23.1 µM (inactive),24.5 µM (inactive),,> 100 µM (inactive)
CC1=CCC23C(C1)OC(Br)(C=CC2(C)O)C3(C)C (stereo not drawn),> 100 µM (inactive),> 100 µM (inactive),> 100 µM (inactive),> 100 µM (inactive),,> 100 µM (inactive),,> 100 µM (inactive),> 100 µM (inactive),> 100 µM (inactive),,> 100 µM (inactive),> 100 µM (inactive),> 100 µM (inactive)
N#Cc1c(-c2ccccc2)c(-c2ccccc2)cc2c(=O)c3ccc(Cl)cc3[nH]c12,> 100 µM (inactive),> 100 µM (inactive),,> 100 µM (inactive),> 100 µM (inactive),> 100 µM (inactive),> 100 µM (inactive),> 100 µM (inactive),> 100 µM (inactive),> 100 µM (inactive),> 100 µM (inactive),> 100 µM (inactive),> 100 µM (inactive),
Cc1cc(O)nc(CNC(=O)c2ccc3ccccc3c2)n1,> 100 µM (inactive),> 100 µM (inactive),> 100 µM (inactive),> 100 µM (inactive),> 100 µM (inactive),> 100 µM (inactive),> 100 µM (inactive),> 100 µM (inactive),> 100 µM (inactive),> 100 µM (inactive),,> 100 µM (inactive),> 100 µM (inactive),> 100 µM (inactive)
CCn1c(C)nc([N+](=O)[O-])c1Sc1ncc[nH]1,78.7 µM (inactive),25.4 µM (inactive),> 100 µM (inactive),,> 100 µM (inactive),20.1 µM (inactive),44 µM (inactive),> 100 µM (inactive),52.6 µM (inactive),31 µM (inactive),21.1 µM (inactive),50.6 µM (inactive),> 100 µM (inactive),> 100 µM (inactive)
COC(=O)c1cc2c(=O)n(C)c3ccccc3n2c1C(=O)OC,67.5 µM (inactive),> 100 µM (inactive),63.1 µM (inactive),,28.1 µM (inactive),> 100 µM (inactive),24.1 µM (inactive),30.3 µM (inactive),26.1 µM (inactive),70.5 µM (inactive),71.9 µM (inactive),16.1 µM (inactive),33.5 µM (inactive),27.2 µM (inactive)
CC[C@H]1CC(=O)c2c(cc3c(c2O)C(=O)c2ccccc2C3=O)[C@@]1(C#N)C(=O)OC(C)(C)C,3.37 µM (inactive),2.17 µM (inactive),2.62 µM (inactive),,3.65 µM (inactive),4.92 µM (inactive),3.48 µM (inactive),3.32 µM (inactive),4.13 µM (inactive),5.92 µM (inactive),3.33 µM (inactive),4.1 µM (inactive),5.47 µM (inactive),
CN(C)CCNC(=O)c1cc2ccccc2c2nc3ccccc3nc12,0.536 µM (active),1.37 µM (inactive),0.804 µM (active),,4.97 µM (inactive),0.818 µM (active),0.986 µM (active),0.841 µM (active),0.845 µM (active),1.56 µM (inactive),0.522 µM (active),1.19 µM (inactive),1.1 µM (active),1.14 µM (inactive)
COc1ccc2c(c1)O[C@@H]1c3ccc(OC)cc3OC[C@H]21,> 10 µM (inactive),23 µM (inactive),28.4 µM (inactive),19.3 µM (inactive),57 µM (inactive),39.2 µM (inactive),24.2 µM (inactive),21.5 µM (inactive),38.1 µM (inactive),40.5 µM (inactive),26.9 µM (inactive),16 µM (inactive),35.2 µM (inactive),
C=CCC12CCC(=O)[C@@]1(C)CC=C(O)C2=O (stereo partly drawn),> 100 µM (inactive),,> 100 µM (inactive),> 100 µM (inactive),> 100 µM (inactive),> 100 µM (inactive),> 100 µM (inactive),> 100 µM (inactive),> 100 µM (inactive),> 100 µM (inactive),> 100 µM (inactive),> 100 µM (inactive),> 100 µM (inactive),> 100 µM (inactive)
CC(=O)OC1CC2CCN3C(=O)c4cc5c(cc4[C@H](C1OC(C)=O)C23)OCO5 (stereo partly drawn),> 100 µM (inactive),,> 100 µM (inactive),> 100 µM (inactive),> 100 µM (inactive),> 100 µM (inactive),> 100 µM (inactive),> 100 µM (inactive),> 100 µM (inactive),> 100 µM (inactive),> 100 µM (inactive),> 100 µM (inactive),> 100 µM (inactive),

# Source: ChEMBL document CHEMBL1201862, “PubChem BioAssay data set” (2004)
